Seven compounds from ChEMBL document CHEMBL1201862, “PubChem BioAssay data set” (2004) can be followed below.

The structures appear in SMILES notation. Activity calls are given as the source filed them.

One assay addresses Trypsin (Sus scrofa, UniProt P00761). Nature of the assay: trypsin protease activity blockade – biochemical, quenched peptide fluorescence, cherry-pick, selectivity assay for Rce1 protease inhibitor project, dose response (AID 488789).
The target in a further assay is T1, CAAX prenyl protease 2 (Saccharomyces cerevisiae S288c, UniProt Q03530).
T1 sequence (Q03530 whole entry): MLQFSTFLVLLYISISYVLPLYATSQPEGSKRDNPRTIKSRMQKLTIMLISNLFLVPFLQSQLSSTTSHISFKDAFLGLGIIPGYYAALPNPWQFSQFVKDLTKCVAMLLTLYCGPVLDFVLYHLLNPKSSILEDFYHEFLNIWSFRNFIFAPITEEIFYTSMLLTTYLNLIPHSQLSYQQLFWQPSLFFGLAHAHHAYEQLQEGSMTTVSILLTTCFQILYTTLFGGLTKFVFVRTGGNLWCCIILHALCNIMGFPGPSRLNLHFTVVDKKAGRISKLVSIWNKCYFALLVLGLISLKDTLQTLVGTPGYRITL
Format: biochemical.

The target in another assay is X-box-binding protein 1 (Homo sapiens, UniProt P17861). Format: functional, Cricetulus griseus.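 Further: confirmatory dose-response counter-screen serving a CHOP assay.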
Sequence of X-box-binding protein 1 (P17861 whole entry): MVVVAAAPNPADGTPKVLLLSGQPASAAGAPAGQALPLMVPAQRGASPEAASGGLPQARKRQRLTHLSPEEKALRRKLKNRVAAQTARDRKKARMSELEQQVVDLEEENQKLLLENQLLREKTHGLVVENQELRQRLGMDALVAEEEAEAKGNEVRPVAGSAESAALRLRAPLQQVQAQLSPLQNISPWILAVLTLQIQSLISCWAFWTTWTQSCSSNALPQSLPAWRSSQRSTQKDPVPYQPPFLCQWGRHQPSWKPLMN
In assay [1] the target is G-protein coupled receptor 35 (Homo sapiens, UniProt Q9HC97). Description: inhibition of zaprinast-stimulated GPR35 beta-arrestin translocation – imaging, U2OS, beta-arrestin-GFP, zaprinast agonist, primary screen (AID 2058).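 Further: antagonist potency meaning inhibition of agonist-induced arrestin redistribution.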 Format: functional.
In another assay the target is Genome polyprotein (dengue virus type 2, UniProt P29990). Nature of the assay: flavivirus cap methylation enzyme inhibition – biochemical, confirmation dose response, primary screen (AID 588689). Format: functional.
Assay [2] deals with T2, Tyrosine-protein phosphatase non-receptor type 7 (Homo sapiens, UniProt P35236).
T2 sequence (P35236 whole entry): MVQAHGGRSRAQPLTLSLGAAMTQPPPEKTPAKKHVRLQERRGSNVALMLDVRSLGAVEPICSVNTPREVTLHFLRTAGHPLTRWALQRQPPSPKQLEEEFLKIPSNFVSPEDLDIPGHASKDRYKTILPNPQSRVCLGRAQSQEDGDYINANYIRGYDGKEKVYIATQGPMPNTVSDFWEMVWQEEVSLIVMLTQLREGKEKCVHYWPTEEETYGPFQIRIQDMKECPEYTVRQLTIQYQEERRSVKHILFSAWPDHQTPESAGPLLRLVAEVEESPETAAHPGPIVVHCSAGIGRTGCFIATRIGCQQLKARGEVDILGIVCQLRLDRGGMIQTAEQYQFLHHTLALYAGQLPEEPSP
Description: HePTP tyrosine phosphatase activity blockers – biochemical, absorbance, leukemia target, primary screen (AID 521). Format: functional.

A further assay deals with T3, Bcl-2-like protein 10 (Homo sapiens, UniProt Q9HD36).
T3 sequence (Q9HD36 whole entry): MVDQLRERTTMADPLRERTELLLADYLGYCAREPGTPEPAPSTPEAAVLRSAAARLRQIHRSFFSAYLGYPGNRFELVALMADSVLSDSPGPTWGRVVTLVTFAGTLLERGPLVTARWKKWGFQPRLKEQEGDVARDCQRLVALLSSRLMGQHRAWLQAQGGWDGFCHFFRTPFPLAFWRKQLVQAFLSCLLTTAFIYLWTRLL
Description: Bcl-B/TR3 peptide binding disruption – biochemical, fluorescence polarization, FITC-TR3 peptide, selectivity assay for Bfl-1 inhibitor project, primary screen (AID 748).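 Further: fluorescence polarization from a fluorescein-labelled TR3 peptide binding purified Bcl-B.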 In general terms: Polarisation of emitted light reports the rotation of a fluorescent probe.

The target in assay [3] is Induced myeloid leukemia cell differentiation protein Mcl-1 (Homo sapiens, UniProt Q07820). Nature of the assay: blockers of MCL1 binding to BIM peptide – biochemical, fluorescence polarization, BIM-BH3 peptide, 1536-well, dose response (AID 2217).
Sequence of Induced myeloid leukemia cell differentiation protein Mcl-1 (Q07820 whole entry): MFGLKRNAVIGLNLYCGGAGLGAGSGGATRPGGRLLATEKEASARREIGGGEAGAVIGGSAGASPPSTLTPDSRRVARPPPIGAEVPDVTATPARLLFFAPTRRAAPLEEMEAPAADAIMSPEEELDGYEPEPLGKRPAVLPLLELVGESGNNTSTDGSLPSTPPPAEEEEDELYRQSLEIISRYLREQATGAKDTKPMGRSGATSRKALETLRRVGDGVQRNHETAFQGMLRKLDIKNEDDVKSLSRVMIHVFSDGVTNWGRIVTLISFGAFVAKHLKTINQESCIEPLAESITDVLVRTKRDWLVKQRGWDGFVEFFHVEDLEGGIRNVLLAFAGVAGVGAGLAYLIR
In the next assay the target is Bcl-2-like protein 1 (Homo sapiens, UniProt Q07817). Description: blockers of BCLXL peptide binding – biochemical, fluorescence polarization, 1536-well, selectivity assay for MCL1 inhibitor project, dose response (AID 2218).
Sequence of Bcl-2-like protein 1 (Q07817 whole entry): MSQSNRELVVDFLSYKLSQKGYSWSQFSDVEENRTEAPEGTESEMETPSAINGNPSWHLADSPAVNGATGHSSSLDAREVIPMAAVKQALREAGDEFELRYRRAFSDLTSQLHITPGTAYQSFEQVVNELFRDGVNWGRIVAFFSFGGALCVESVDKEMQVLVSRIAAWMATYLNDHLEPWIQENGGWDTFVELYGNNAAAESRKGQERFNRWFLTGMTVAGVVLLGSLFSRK
Assay [4] has as its target T4, Voltage-gated N-type calcium channel alpha-1B subunit/Amyloid beta A4 precursor protein-binding family A member 1 (Homo sapiens, UniProt Q00975+Q02410). In kind it is protein assay.
In assay [5] the target is T4, Voltage-gated N-type calcium channel alpha-1B subunit/Amyloid beta A4 precursor protein-binding family A member 1. In kind it is protein assay. This is another data set of the same source.
Assay [6] shares this target. Description: disruptors of Mint-PDZ/N-type channel peptide interaction – biochemical, HTRF, set 2, SAR follow-up (AID 434980). Format: functional.
Assay [7] has the same target. Description: disruptors of Mint-PDZ/N-type channel peptide interaction – biochemical, HTRF, SAR follow-up (AID 2489). Format: functional.
The target of assay [8] is Glucose-6-phosphate 1-dehydrogenase (Homo sapiens, UniProt P11413). Description: inhibition of Homo sapiens G6PD, dose series – biochemical, fluorescence, selectivity assay for P. falciparum G6PD inhibitor project, dose response (AID 504792). Format: functional.
Another assay deals with T5, Hexokinase HKDC1 (Homo sapiens, UniProt Q2TB90).
T5 sequence (Q2TB90 whole entry): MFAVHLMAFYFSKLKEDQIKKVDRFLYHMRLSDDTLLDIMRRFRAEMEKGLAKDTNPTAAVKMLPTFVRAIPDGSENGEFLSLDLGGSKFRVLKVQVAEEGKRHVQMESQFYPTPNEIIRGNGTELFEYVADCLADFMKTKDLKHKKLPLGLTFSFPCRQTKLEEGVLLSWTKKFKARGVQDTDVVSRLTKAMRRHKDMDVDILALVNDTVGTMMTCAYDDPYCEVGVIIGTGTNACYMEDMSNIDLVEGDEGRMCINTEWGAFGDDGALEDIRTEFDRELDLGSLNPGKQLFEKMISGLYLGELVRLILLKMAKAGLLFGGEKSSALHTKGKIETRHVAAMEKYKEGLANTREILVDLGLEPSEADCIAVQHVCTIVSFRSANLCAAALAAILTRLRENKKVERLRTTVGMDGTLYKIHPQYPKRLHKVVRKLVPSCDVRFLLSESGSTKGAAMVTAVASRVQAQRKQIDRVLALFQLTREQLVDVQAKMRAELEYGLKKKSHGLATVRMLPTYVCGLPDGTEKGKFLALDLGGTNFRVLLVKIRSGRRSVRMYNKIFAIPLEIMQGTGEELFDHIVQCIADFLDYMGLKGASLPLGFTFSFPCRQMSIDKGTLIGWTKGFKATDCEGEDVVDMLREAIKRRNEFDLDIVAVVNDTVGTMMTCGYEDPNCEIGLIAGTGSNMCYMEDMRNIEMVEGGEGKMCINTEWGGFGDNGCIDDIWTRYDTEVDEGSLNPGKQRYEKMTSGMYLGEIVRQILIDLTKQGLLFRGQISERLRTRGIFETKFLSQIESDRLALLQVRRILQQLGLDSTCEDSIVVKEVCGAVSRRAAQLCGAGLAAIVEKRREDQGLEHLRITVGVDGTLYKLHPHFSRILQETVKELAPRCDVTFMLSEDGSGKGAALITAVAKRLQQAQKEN
Nature of the assay: inhibition of HKDC1 glucose phosphorylation – biochemical, W721R variant, dose response (AID 504729). In kind it is functional.

A short description of assay [9]: bead-based luminescence quenchers, dual-tagged ARNT – biochemical, AlphaScreen, cherry-pick, artefact control for ARNT-TACC3 interaction inhibitor project, dose response (AID 651705).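 Further: AlphaScreen bead proximity signal that flags compounds interfering with the detection technology; potency reflects signal decrease which marks the compound as an assay artifact.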 Format: functional. A general note: In Alpha technology, singlet oxygen from a donor bead excites a nearby acceptor bead.
The target in assay [10] is T6, Histone-lysine N-methyltransferase NSD2 (Homo sapiens, UniProt O96028).
T6 sequence (O96028 whole entry): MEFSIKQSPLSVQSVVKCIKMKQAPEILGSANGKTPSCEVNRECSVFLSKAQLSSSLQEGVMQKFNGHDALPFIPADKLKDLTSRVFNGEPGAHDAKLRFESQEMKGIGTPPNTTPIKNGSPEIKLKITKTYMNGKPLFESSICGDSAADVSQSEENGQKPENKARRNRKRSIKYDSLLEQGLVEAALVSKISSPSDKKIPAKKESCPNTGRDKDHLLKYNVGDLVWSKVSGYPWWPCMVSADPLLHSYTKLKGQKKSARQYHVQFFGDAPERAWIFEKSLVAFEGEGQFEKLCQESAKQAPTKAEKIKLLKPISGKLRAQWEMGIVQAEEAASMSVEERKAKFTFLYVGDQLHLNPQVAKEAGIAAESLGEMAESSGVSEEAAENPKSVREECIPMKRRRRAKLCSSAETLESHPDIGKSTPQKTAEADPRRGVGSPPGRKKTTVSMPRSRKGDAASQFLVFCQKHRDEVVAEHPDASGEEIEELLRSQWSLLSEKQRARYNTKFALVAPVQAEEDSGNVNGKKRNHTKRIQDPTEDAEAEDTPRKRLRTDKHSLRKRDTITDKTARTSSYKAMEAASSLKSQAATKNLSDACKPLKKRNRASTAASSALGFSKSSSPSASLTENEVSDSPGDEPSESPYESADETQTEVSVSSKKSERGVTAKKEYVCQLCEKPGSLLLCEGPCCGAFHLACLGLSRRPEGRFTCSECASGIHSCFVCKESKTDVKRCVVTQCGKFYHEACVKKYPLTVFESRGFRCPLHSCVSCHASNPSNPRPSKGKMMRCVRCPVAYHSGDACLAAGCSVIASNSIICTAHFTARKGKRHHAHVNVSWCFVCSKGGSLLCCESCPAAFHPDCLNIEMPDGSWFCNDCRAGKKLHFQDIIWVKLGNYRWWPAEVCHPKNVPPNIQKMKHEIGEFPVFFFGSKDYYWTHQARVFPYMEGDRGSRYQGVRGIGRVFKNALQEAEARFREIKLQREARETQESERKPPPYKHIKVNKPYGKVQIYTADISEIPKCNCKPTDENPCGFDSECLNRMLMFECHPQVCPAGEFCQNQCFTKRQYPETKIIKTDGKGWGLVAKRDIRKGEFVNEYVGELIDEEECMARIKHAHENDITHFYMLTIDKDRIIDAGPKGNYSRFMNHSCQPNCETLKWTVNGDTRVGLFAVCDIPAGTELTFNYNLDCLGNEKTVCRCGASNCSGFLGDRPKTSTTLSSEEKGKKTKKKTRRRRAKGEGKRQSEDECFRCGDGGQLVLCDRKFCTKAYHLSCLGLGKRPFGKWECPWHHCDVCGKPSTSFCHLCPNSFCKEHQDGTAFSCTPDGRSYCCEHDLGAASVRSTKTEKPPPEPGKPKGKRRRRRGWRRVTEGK
In kind it is biochemical.

Assay [11] deals with T7, Tyrosyl-DNA phosphodiesterase 2 (Homo sapiens, UniProt O95551).
T7 sequence (O95551 whole entry): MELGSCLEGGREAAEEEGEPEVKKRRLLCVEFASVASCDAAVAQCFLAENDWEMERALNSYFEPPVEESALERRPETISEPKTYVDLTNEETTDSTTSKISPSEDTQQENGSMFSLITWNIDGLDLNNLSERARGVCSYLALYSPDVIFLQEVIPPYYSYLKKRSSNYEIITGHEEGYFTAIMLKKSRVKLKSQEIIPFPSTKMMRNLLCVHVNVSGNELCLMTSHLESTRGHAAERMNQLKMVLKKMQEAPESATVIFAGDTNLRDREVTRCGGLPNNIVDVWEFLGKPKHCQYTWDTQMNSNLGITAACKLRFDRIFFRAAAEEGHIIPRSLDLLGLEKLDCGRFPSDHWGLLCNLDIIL
Description: potency against TDP2 phosphodiesterase activity – biochemical, epi absorbance, IC50, dose response (AID 743297).

Assay [12] concerns the target Cyclin-dependent kinase 5/CDK5 activator 1 (Homo sapiens, UniProt Q00535). Nature of the assay: blockade of human CDK5 activity – biochemical, cherry-picked samples, set 2, dose response (AID 504545).

T4 sequence (Q00975 whole entry): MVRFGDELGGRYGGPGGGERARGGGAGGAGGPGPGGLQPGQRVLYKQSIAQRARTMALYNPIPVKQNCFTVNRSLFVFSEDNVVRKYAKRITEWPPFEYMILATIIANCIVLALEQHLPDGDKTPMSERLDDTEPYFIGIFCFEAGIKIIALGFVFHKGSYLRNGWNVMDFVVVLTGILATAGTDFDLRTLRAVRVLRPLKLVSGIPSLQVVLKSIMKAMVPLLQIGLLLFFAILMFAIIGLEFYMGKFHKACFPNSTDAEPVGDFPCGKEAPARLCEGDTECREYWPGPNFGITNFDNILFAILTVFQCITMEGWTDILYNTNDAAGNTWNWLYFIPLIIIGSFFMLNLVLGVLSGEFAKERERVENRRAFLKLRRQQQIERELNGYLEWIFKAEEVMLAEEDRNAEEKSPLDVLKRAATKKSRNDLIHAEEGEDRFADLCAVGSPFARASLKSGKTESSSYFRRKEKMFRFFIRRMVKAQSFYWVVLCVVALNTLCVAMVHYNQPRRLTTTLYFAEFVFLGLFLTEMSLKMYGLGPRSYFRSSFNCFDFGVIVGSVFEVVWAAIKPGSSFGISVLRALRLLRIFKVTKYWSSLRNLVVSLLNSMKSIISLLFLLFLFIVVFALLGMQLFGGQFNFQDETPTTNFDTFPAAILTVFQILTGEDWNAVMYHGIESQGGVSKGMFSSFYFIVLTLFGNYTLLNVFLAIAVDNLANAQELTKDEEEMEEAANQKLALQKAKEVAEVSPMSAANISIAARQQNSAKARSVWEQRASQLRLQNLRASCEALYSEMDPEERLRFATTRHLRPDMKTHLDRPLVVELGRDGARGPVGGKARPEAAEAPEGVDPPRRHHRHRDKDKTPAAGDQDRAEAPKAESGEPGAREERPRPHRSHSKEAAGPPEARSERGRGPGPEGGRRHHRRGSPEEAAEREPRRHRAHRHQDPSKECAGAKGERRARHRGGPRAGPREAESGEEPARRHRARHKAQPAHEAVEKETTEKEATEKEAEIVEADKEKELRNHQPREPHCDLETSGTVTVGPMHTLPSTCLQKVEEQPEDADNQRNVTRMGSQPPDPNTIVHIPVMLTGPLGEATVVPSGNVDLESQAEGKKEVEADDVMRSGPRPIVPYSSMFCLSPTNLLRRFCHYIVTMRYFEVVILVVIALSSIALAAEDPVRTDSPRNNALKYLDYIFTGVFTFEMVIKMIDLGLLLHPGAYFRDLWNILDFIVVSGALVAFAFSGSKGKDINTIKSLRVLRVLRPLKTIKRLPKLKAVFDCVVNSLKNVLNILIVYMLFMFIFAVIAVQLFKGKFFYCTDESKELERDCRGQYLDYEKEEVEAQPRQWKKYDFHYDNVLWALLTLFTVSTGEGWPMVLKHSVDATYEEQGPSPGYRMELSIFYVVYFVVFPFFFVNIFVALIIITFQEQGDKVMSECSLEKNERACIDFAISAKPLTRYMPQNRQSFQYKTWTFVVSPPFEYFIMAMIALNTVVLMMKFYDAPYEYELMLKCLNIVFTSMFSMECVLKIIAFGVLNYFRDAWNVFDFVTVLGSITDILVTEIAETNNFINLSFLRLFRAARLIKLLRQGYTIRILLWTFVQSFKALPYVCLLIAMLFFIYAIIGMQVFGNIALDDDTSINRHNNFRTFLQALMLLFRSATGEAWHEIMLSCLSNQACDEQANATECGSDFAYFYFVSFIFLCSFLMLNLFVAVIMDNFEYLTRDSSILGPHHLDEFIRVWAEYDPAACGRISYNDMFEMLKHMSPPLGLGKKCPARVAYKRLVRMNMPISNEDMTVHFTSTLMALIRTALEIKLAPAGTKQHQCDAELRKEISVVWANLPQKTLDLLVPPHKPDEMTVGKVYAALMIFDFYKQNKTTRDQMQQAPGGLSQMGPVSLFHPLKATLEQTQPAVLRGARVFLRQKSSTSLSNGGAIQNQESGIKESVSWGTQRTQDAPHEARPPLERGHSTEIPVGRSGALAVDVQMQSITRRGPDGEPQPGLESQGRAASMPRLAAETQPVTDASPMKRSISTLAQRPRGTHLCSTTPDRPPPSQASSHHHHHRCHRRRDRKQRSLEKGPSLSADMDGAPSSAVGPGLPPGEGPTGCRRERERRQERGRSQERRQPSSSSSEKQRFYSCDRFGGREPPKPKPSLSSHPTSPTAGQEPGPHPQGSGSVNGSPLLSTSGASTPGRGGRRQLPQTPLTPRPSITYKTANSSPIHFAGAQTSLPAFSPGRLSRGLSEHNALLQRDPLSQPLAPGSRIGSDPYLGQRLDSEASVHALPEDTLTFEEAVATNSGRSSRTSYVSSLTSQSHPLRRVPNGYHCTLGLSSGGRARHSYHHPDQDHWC
T4 sequence (Q02410 whole entry): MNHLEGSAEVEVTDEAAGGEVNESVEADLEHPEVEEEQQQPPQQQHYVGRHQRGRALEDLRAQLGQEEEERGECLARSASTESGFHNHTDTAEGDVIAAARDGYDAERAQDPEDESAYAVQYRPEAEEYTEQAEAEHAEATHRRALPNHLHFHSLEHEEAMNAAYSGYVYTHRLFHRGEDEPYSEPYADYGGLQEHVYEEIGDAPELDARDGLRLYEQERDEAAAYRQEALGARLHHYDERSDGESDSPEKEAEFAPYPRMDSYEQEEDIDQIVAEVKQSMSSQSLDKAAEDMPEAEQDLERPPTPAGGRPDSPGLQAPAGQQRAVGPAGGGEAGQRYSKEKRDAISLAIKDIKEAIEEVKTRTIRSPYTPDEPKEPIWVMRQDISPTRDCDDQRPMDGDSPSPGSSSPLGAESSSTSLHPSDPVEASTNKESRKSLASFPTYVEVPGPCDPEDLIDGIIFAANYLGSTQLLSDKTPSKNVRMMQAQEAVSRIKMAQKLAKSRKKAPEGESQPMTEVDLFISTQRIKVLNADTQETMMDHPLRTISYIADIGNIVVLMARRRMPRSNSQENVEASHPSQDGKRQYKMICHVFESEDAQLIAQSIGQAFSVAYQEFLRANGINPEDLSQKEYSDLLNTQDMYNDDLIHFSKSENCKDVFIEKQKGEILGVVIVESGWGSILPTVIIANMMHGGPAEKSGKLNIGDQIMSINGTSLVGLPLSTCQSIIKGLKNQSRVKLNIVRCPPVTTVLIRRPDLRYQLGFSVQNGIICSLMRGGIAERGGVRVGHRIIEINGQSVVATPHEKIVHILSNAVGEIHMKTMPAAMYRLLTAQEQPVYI
Sequence of Cyclin-dependent kinase 5/CDK5 activator 1 (Q00535 whole entry): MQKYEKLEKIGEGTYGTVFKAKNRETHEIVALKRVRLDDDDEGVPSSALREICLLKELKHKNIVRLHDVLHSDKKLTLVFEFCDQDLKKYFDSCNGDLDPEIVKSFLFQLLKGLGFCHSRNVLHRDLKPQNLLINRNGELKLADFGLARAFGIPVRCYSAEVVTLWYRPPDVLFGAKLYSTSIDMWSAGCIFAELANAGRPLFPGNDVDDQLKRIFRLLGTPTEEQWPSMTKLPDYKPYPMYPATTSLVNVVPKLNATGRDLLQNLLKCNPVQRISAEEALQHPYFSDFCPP
Sequence of Cyclin-dependent kinase 5/CDK5 activator 1 (Q15078 whole entry, further chain): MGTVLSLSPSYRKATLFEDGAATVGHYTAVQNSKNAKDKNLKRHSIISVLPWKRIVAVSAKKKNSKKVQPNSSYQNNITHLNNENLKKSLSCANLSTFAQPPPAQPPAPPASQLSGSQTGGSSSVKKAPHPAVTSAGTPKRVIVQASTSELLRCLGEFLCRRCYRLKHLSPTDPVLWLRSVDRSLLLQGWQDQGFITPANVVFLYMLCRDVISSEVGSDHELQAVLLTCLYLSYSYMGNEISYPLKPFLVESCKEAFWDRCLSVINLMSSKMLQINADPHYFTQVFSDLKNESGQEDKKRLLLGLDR
Sequence of Trypsin (P00761 whole entry): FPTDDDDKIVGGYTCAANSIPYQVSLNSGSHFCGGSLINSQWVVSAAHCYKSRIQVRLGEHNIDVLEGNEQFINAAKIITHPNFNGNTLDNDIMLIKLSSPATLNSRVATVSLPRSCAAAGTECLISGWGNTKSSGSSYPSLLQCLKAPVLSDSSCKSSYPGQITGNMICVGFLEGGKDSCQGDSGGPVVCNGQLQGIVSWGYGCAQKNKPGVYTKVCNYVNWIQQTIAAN

Broadly, the AC50 is the concentration at which the activity in the assay is half-maximal. Turning to `O=C(COc1ccc2ccc(=O)oc2c1)NCCc1c[nH]c2ccc(F)cc12`, the AC50 on Trypsin was 9.56 µM (active); on CAAX prenyl protease 2, 9.47 µM (active).
As to `O=C(Nc1ccccc1C(F)(F)F)c1cc(-c2ccc(O)cc2)on1`, the “Absolute IC50 (XBP1)” value at X-box-binding protein 1 came to 10 µM.
By IC50 is commonly meant the concentration that gives 50% inhibition. Turning to `O=C(O)COc1ccc(/C=C/C(=O)c2ccc(C3CCCCC3)cc2)cc1`, the IC50 is 2.16 µM (active) in assay [1] and 47.7 µM (active) at Genome polyprotein.
Take `CCn1c(SC(C)C(=O)O)nc2sc3c(c2c1=O)CCC3` (centres undefined): the IC50 in assay [2] is 1.69 µM (active); on Bcl-2-like protein 10 it was 7.65 µM (active); in assay [3], 16.8 µM (not active); at Bcl-2-like protein 1 it was 90.1 µM (not active).
For `CC(=O)Oc1ccc(N2C(=O)C3C(C2=O)C2(C)C=CC3(C)O2)cc1` (centres undefined), the IC50 in assay [4] is 5.05 µM (active); in assay [5], 1.93 µM (active); in [6], 6.39 µM (active); in assay [7], 7.82 µM (active).
With `CC(N=C1C=C(O)c2cccnc2C1=O)C(O)c1ccccc1` (centres undefined), the values for the IC50 (in assay [8]; at Hexokinase HKDC1; in [11]) were 33.2 µM (inactive), 18.5 µM (active) and 5.45 µM (active), respectively. In addition, the AC50 is 111 µM (active) in assay [9] and 0.754 µM (active) in assay [10].
Regarding `COc1ccc(C(=O)c2sc(Nc3ccccc3)nc2N)cc1`, the AC50 in assay [12] was 16.8 µM (active).
